Assay results as given in patent US20130274174A1, “THERAPEUTIC COMBINATION OF DAPTOMYCIN AND PROTEIN SYNTHESIS INHIBITOR ANTIBIOTIC, AND METHODS OF USE” (priority 2011, published 2013).
Converted amounts (≈) assume the structure as drawn. Like-named read-outs stand apart in the source and are kept apart here.

Tested on: S. aureus MW2 (NRS123)
Assay: microbe, parasite or virus in culture
Assay type: cell-based, Staphylococcus aureus
Details: Staphylococcus aureus
Experimental: S. aureus strains MW2 (NARSA collection clinical MRSA isolate, NRS123) and ATCC 33591 (MRSA strain from the American Type Culture Collection) were cultured on Mueller-Hinton II cation adjusted (MHA) medium in 90×90 mm square petri dishes. MHA containing ¼ of the MIC value of TR-700, TR-705, LZD, TIA, CLI, TET, or VAN, TMP/SMX throughout the plate and a continuous linear gradient of DAP across the plate was used to passage MW2. ATCC 33591 was passaged with ¼ of the MIC of a subset of these drugs (TR-700, TMP/SMX, and VAN). A DAP-only control passage group was included for both strains. DAP gradients were created by pouring two layers of media as previously described (Bryson, V., et al. 1952. Microbial selection. Science 116:45-51; Locke, J. B., et al., 2009. Antimicrob. Agents Chemother. 53:5265-5274). Following each passage the leading edge of growth (i.e., most resistant cells) was resuspended in phosphate buffered saline (PBS) to an absorbance of 0.30 OD600 and a 100 μl aliquot containing ˜3.0×10^7 CFU (colony-forming units) was spread on to the proceeding passage plate. The starting maximal DAP concentration was 2 μg/ml and was increased in two-fold increments when the leading edge of growth surpassed the half way point on the plate. A glycerol stock was made from the total cell population for each culture condition for each passage. Thirty serial passages were completed for each treatment group.

[1] = NRS123, passage 5, selection group DAP
[2] = NRS123, passage 5, selection group DAP + CLI
[3] = NRS123, passage 5, selection group DAP + LZD
[4] = NRS123, passage 5, selection group DAP + TET
[5] = NRS123, passage 5, selection group DAP + TIA
[6] = NRS123, passage 5, selection group DAP + TMP/SMX
[7] = NRS123, passage 5, selection group DAP + TR-700
[8] = NRS123, passage 5, selection group DAP + TR-705
[9] = NRS123, passage 5, selection group DAP + VAN
[10] = NRS123, passage 10, selection group DAP
[11] = NRS123, passage 10, selection group DAP + CLI
[12] = NRS123, passage 10, selection group DAP + LZD
[13] = NRS123, passage 10, selection group DAP + TET
[14] = NRS123, passage 10, selection group DAP + TIA
[15] = NRS123, passage 10, selection group DAP + TMP/SMX
[16] = NRS123, passage 10, selection group DAP + TR-700
[17] = NRS123, passage 10, selection group DAP + TR-705
[18] = NRS123, passage 10, selection group DAP + VAN
[19] = NRS123, passage 15, selection group DAP
[20] = NRS123, passage 15, selection group DAP + CLI
[21] = NRS123, passage 15, selection group DAP + LZD
[22] = NRS123, passage 15, selection group DAP + TET
[23] = NRS123, passage 15, selection group DAP + TIA
[24] = NRS123, passage 15, selection group DAP + TMP/SMX
[25] = NRS123, passage 15, selection group DAP + TR-700
[26] = NRS123, passage 15, selection group DAP + TR-705
[27] = NRS123, passage 15, selection group DAP + VAN
[28] = NRS123, passage 20, selection group DAP
[29] = NRS123, passage 20, selection group DAP + CLI
[30] = NRS123, passage 20, selection group DAP + LZD
[31] = NRS123, passage 20, selection group DAP + TET
[32] = NRS123, passage 20, selection group DAP + TIA
[33] = NRS123, passage 20, selection group DAP + TMP/SMX
[34] = NRS123, passage 20, selection group DAP + TR-700
[35] = NRS123, passage 20, selection group DAP + TR-705
[36] = NRS123, passage 20, selection group DAP + VAN
[37] = NRS123, passage 25, selection group DAP
[38] = NRS123, passage 25, selection group DAP + CLI
[39] = NRS123, passage 25, selection group DAP + LZD
[40] = NRS123, passage 25, selection group DAP + TET
[41] = NRS123, passage 25, selection group DAP + TIA
[42] = NRS123, passage 25, selection group DAP + TMP/SMX
[43] = NRS123, passage 25, selection group DAP + TR-700
[44] = NRS123, passage 25, selection group DAP + TR-705
[45] = NRS123, passage 25, selection group DAP + VAN
[46] = NRS123, passage 30, selection group DAP
[47] = NRS123, passage 30, selection group DAP + CLI
[48] = NRS123, passage 30, selection group DAP + LZD
[49] = NRS123, passage 30, selection group DAP + TET
[50] = NRS123, passage 30, selection group DAP + TIA
[51] = NRS123, passage 30, selection group DAP + TMP/SMX
[52] = NRS123, passage 30, selection group DAP + TR-700
[53] = NRS123, passage 30, selection group DAP + TR-705
[54] = NRS123, passage 30, selection group DAP + VAN
[55] = NRS123, read-out: DAP MIC by the end of the experiment (selection of DAP^ns strains), MW2, passaged with DAP alone or with co-selecting agent at ¼ MIC, CLSI breakpoint

Q: How did the MIC (NRS123, passage 0, NRS123 WT) turn out when `CCC[C@@H]1C[C@@H](C(=O)N[C@@H]([C@H]2O[C@H](SC)[C@H](O)[C@@H](O)[C@H]2O)[C@H](C)Cl)N(C)C1` [CLI, clindamycin] was run?
A: The MIC was 0.125 µg/mL (≈ 0.294 µM).

Q: And the MIC [1]?
A: Its MIC is 0.125 µg/mL (≈ 0.294 µM).

Q: And the MIC [2]?
A: Its MIC is 0.0625 µg/mL.

Q: What about the MIC [3] of the same molecule?
A: The MIC was 0.0625 µg/mL.

Q: And the MIC [4]?
A: Its MIC is 0.125 µg/mL.

Q: And the MIC [5]?
A: The MIC was 0.125 µg/mL.

Q: What about the MIC [6] of the same molecule?
A: The MIC was 0.125 µg/mL.

Q: And the MIC [7]?
A: The MIC was 0.125 µg/mL.

Q: And the MIC [8]?
A: The MIC was 0.0625 µg/mL.

Q: And the MIC [9]?
A: The MIC was 0.125 µg/mL.

Q: And the MIC [10]?
A: The MIC was 0.125 µg/mL (≈ 0.294 µM).

Q: And the MIC [11]?
A: Its MIC is 0.0625 µg/mL.

Q: And the MIC [12]?
A: Its MIC is 0.0625 µg/mL.

Q: What about the MIC [13] of the same molecule?
A: Its MIC is 0.0625 µg/mL.

Q: And the MIC [14]?
A: Its MIC is 0.125 µg/mL.

Q: What about the MIC [15] of the same molecule?
A: Its MIC is 0.125 µg/mL.

Q: What about the MIC [16] of the same molecule?
A: Its MIC is 0.125 µg/mL.

Q: What about the MIC [17] of the same molecule?
A: The MIC was 0.125 µg/mL.

Q: And the MIC [18]?
A: Its MIC is 0.0625 µg/mL.

Q: And the MIC [19]?
A: The MIC was 0.125 µg/mL (≈ 0.294 µM).

Q: What about the MIC [20] of the same molecule?
A: The MIC was 0.0625 µg/mL.

Q: And the MIC [21]?
A: Its MIC is 0.125 µg/mL.

Q: What about the MIC [22] of the same molecule?
A: Its MIC is 0.0313 µg/mL.

Q: What about the MIC [23] of the same molecule?
A: The MIC was 0.0625 µg/mL.

Q: What about the MIC [24] of the same molecule?
A: Its MIC is 0.125 µg/mL.

Q: And the MIC [25]?
A: Its MIC is 0.125 µg/mL.

Q: And the MIC [26]?
A: Its MIC is 0.0625 µg/mL.

Q: What about the MIC [27] of the same molecule?
A: Its MIC is 0.125 µg/mL.

Q: And the MIC [28]?
A: The MIC was 0.0625 µg/mL (≈ 0.147 µM).

Q: And the MIC [29]?
A: Its MIC is 0.0625 µg/mL.

Q: What about the MIC [30] of the same molecule?
A: Its MIC is 0.125 µg/mL.

Q: And the MIC [31]?
A: The MIC was 0.0313 µg/mL.

Q: And the MIC [32]?
A: Its MIC is 0.0625 µg/mL.

Q: What about the MIC [33] of the same molecule?
A: Its MIC is 0.125 µg/mL.

Q: What about the MIC [34] of the same molecule?
A: The MIC was 0.125 µg/mL.

Q: What about the MIC [35] of the same molecule?
A: The MIC was 0.0625 µg/mL.

Q: What about the MIC [36] of the same molecule?
A: Its MIC is 0.125 µg/mL.

Q: And the MIC [37]?
A: Its MIC is 0.125 µg/mL (≈ 0.294 µM).

Q: What about the MIC [38] of the same molecule?
A: Its MIC is 0.0625 µg/mL.

Q: And the MIC [39]?
A: The MIC was 0.0625 µg/mL.

Q: And the MIC [40]?
A: Its MIC is 0.0313 µg/mL.

Q: And the MIC [41]?
A: Its MIC is 0.0625 µg/mL.

Q: And the MIC [42]?
A: The MIC was 0.125 µg/mL.

Q: And the MIC [43]?
A: Its MIC is 0.125 µg/mL.

Q: And the MIC [44]?
A: The MIC was 0.0625 µg/mL.

Q: And the MIC [45]?
A: The MIC was 0.125 µg/mL.

Q: And the MIC [46]?
A: The MIC was 0.125 µg/mL (≈ 0.294 µM).

Q: What about the MIC [47] of the same molecule?
A: The MIC was 0.0625 µg/mL.

Q: And the MIC [48]?
A: Its MIC is 0.0625 µg/mL.

Q: What about the MIC [49] of the same molecule?
A: The MIC was 0.0313 µg/mL.

Q: And the MIC [50]?
A: Its MIC is 0.125 µg/mL.

Q: What about the MIC [51] of the same molecule?
A: Its MIC is 0.125 µg/mL.

Q: What about the MIC [52] of the same molecule?
A: The MIC was 0.125 µg/mL.

Q: And the MIC [53]?
A: Its MIC is 0.125 µg/mL.

Q: What about the MIC [54] of the same molecule?
A: The MIC was 0.0625 µg/mL.

Q: And the MIC [55]?
A: Its MIC is greater than 1 µg/mL.

Q: Which results are given for `C=C[C@]1(C)C[C@@H](OC(=O)CSCCN(CC)CC)[C@]2(C)[C@H](C)CC[C@]3(CCC(=O)[C@H]32)[C@@H](C)[C@@H]1O` [TIA, tiamulin]?
A: MIC (NRS123, passage 0, NRS123 WT): 0.5 µg/mL (≈ 1.01 µM); MIC [1]: 0.5 µg/mL (≈ 1.01 µM); MIC [2]: 1 µg/mL; MIC [3]: 1 µg/mL; MIC [4]: 0.5 µg/mL; MIC [5]: 0.5 µg/mL; MIC [6]: 0.5 µg/mL; MIC [7]: 1 µg/mL; MIC [8]: 1 µg/mL; MIC [9]: 0.5 µg/mL; MIC [10]: 0.5 µg/mL (≈ 1.01 µM); MIC [11]: 1 µg/mL; MIC [12]: 1 µg/mL; MIC [13]: 0.5 µg/mL; MIC [14]: 0.5 µg/mL; MIC [15]: 1 µg/mL; MIC [16]: 1 µg/mL; MIC [17]: 0.5 µg/mL; MIC [18]: 0.5 µg/mL; MIC [19]: 0.5 µg/mL (≈ 1.01 µM); MIC [20]: 0.5 µg/mL; MIC [21]: 1 µg/mL; MIC [22]: 0.25 µg/mL; MIC [23]: 0.5 µg/mL; MIC [24]: 1 µg/mL; MIC [25]: 1 µg/mL; MIC [26]: 0.5 µg/mL; MIC [27]: 0.5 µg/mL; MIC [28]: 0.5 µg/mL (≈ 1.01 µM); MIC [29]: 0.5 µg/mL; MIC [30]: 1 µg/mL; MIC [31]: 0.25 µg/mL; MIC [32]: 0.5 µg/mL; MIC [33]: 0.5 µg/mL; MIC [34]: 1 µg/mL; MIC [35]: 0.5 µg/mL; MIC [36]: 0.5 µg/mL; MIC [37]: 0.25 µg/mL (≈ 0.506 µM); MIC [38]: 0.5 µg/mL; MIC [39]: 0.25 µg/mL; MIC [40]: 0.25 µg/mL; MIC [41]: 0.5 µg/mL; MIC [42]: 0.5 µg/mL; MIC [43]: 1 µg/mL; MIC [44]: 0.5 µg/mL; MIC [45]: 0.5 µg/mL; MIC [46]: 0.25 µg/mL (≈ 0.506 µM); MIC [47]: 0.25 µg/mL; MIC [48]: 0.5 µg/mL; MIC [49]: 0.25 µg/mL; MIC [50]: 0.5 µg/mL; MIC [51]: 0.5 µg/mL; MIC [52]: 0.5 µg/mL; MIC [53]: 0.5 µg/mL; MIC [54]: 0.25 µg/mL; MIC [55]: > 1 µg/mL
